Results as given in the COVID Moonshot data (paper PMC11187573), “Identification of SARS-CoV-2 Mpro inhibitors through deep reinforcement learning for de novo drug design and computational chemistry approaches” (RSC Medicinal Chemistry, 2024).

Tests used:
[1] = molecular target: SARS-CoV-2 Main Protease (SARS-CoV-2) (UniProt P0DTD1)
[2] = molecular target: SARS-CoV-2 Main Protease (SARS-CoV-2) (UniProt P0DTD1); remark: listed apart in the source

| SMILES | inhibition ([1]; 20.0 µM) [%] | inhibition ([1]; 50.0 µM) [%] | inhibition ([2]; 50.0 µM) [%] | relative solubility at 20 uM | relative solubility at 100 uM | IC50 [2] [µM] | inhibition ([2]; 20.0 µM) [%] |
| --- | --- | --- | --- | --- | --- | --- | --- |
| O=C(Cc1cccc(Cl)c1)Nc1cnns1 | 4.12 | 3.34 | 48.7 | 0.99 | 0.99 | – | – |
| O=C1NC(c2cccnc2)C(=O)N1c1cccc(Cl)c1 (stereo not given) | 18.1 | 33.9 | 69.6 | 0.85 | 0.91 | 57.8 | – |
| Cc1ccncc1NC(=O)CN1CCOCC1 | -2.39 | -7.76 | 5.7 | 1 | 1 | – | – |
| Cc1nnc(NC(=O)Nc2cccnc2)s1 | 1.19 | 7.32 | 8.86 | 1 | 0.99 | – | 4.62 |
| O=C1CC(c2cccc(NC(=O)Cc3cncnc3)c2)CN1 (stereo not given) | 3.83 | 10.8 | 0 | 1 | 1 | – | – |
| C=CC(=O)N(c1ccc(C(C)(C)C)cc1)C(C(=O)NCCSC)c1cccnc1 (stereo not given) | 38.5 | 68.9 | 63.9 | 1 | 0.99 | 65.4 | 56 |
| Cn1cc(S(N)(=O)=O)cc1CC(=O)Nc1cccc(C(=O)NCc2ccccn2)c1 | -21.5 | -0.596 | 0 | 1 | 1 | – | – |
| C#Cc1cccc(N(C(=O)C=C)C(C(=O)NC(C)(C)C)c2cccnc2)c1 (stereo not given) | -3.84 | 3.7 | – | 1 | 1.01 | – | 0 |
| CCN1CCN(Cc2ccccc2CNC2=NC[C@@H](C3CCCC3)N2)CC1 (stereo in doubt) | -1.16 | -20.8 | -30.8 | 1 | 1 | – | – |
| CO[C@H](C)C(=O)N(C)c1cnccc1C (stereo in doubt) | 3.08 | 4.99 | 18 | 1.01 | 0.99 | – | – |
| Cc1ccncc1NC(=O)C(C)c1cccc(C#N)c1 (stereo not given) | 35.4 | 61.4 | 58.4 | 1 | 1 | 45.3 | 21 |
| C=CC(=O)N1CCN(Cc2cc(Cl)cc3ccccc23)CC1 | – | 37.9 | 0 | 0.86 | 0.75 | – | 0 |
| CC1CC(C)CN(C(=O)c2ccccc2NC(=O)NCc2ccoc2)C1 (stereo not given) | – | 8.34 | 0 | 1 | 0.99 | – | 0 |
| C=CC(=O)N(c1ccc(C(C)(C)C)cc1)C(C(=O)NC(C)(C)C)c1cncc(Cl)c1 (stereo not given) | 34.6 | 19.6 | 13.5 | 0.99 | 0.86 | – | 0 |
| COc1ccc(N2CCN(C(=O)c3cc(=O)[nH]c4ccccc34)CC2)cc1 | 61.4 | 81.7 | 51.4 | 1 | 1 | 95.7 | – |
| Cc1cc(C(C)(C)C)ccc1OC[C@H](O)Cn1cnccc1=O (stereo in doubt) | -3.67 | 16.5 | 0 | 1.01 | 1 | – | – |
| O=C(NCc1noc2ccccc12)c1ccccc1OCC1CC1 | 5.31 | 11.7 | 0 | 1 | 0.64 | – | 0 |
| C=CC(=O)N(c1ccc(C(C)(C)C)cc1)C(C(=O)NCC1CCOC1)c1cccnc1 (stereo not given) | 25.7 | 41.3 | 29.4 | 1 | 0.99 | – | 1.1 |
| CCC(CC)C(=O)C(C#N)C(=O)Nc1ccc(F)cc1 (stereo not given) | – | -16.2 | 0 | 1 | 1 | – | 0 |
| COc1ccccc1OC1CCCN(C(=O)c2cc(=O)[nH]c3ccc(Cl)cc23)C1 (stereo not given) | -0.617 | 5.27 | 0 | 0.99 | 0.93 | – | – |
| Cc1ccncc1NC(=O)Cc1cccc(C#N)c1 | 33.6 | 58.3 | 52.7 | 1 | 1.01 | 43.8 | 20.5 |
| C=CC(=O)N(c1ccc(C(C)(C)C)cc1)C(C(=O)NCc1ccc(F)cc1)c1cccnc1 (stereo not given) | 51.2 | 76.4 | 100 | 0.98 | 0.66 | 10.5 | 79.3 |
| Cc1nc(-c2cccc(CNC(=O)Nc3cccc(CN4CCCC4=O)c3)c2)n[nH]1 | 2.12 | 2.95 | 0 | 0.98 | 0.98 | – | – |
| Cc1cnn(C)c1NC(=O)Cc1cccc(Cl)c1 | 3.11 | 5.06 | 23.1 | 0.99 | 0.99 | – | – |
| N#Cc1ccc(NC(=O)Nc2cccnc2)cc1 | 5.82 | 11.6 | – | 1 | 1 | – | 0 |
| N#CC(C(=O)Nc1cccc(Cl)c1)C(=O)c1cccs1 (stereo not given) | – | 31.8 | 0 | 1 | 1 | – | 0 |
| C=CC(=O)N(c1ccc(C(C)(C)C)cc1)C(C(=O)NC(C)(C)C)c1cncc(OCC)c1 (stereo not given) | -1.87 | 2.59 | 15 | 0.99 | 0.89 | – | -0.816 |
| Cc1ccncc1NC(=O)Nc1cncc(C#N)c1 | 3.67 | 3.96 | 15.5 | 1 | 1 | – | – |

| SMILES | inhibition ([1]; 20.0 µM) [%] | inhibition ([1]; 50.0 µM) [%] | inhibition ([2]; 50.0 µM) [%] | relative solubility at 20 uM | relative solubility at 100 uM | IC50 [2] [µM] | inhibition ([2]; 20.0 µM) [%] |
| --- | --- | --- | --- | --- | --- | --- | --- |
| O=C(NCc1cccnn1)Nc1cccc(N2CCC2=O)c1 | 3.61 | 6.82 | 0 | 1 | 1 | – | 0 |
| COc1ccc(C(=O)Nc2cccc(/C=C3/C(=O)NC(=O)c4ccccc43)c2)cc1 | -3.55 | -22.9 | 34.2 | 0.48 | 0.54 | – | – |
| Cc1ccc(S(=O)(=O)NC2CCN(C(=O)CCl)CC2)cc1 | 25.1 | 59.3 | – | 1 | 1.01 | 18.5 | 54.9 |
| N#Cc1cccc(CNc2ccc(O)cc2)c1 | 9.73 | 2.32 | 22.7 | 1 | 1 | – | 19.8 |
| O=C(C1CCCN1C(=O)c1ccccc1)N1CCOCC1 (stereo not given) | – | -28 | 0 | 1 | 1 | – | 0 |
| COc1ccccc1OCCNC(=O)c1cc(=O)[nH]c2ccc(Cl)cc12 | -2.31 | 34.1 | 23 | 0.93 | 0.66 | – | – |
| CC(=O)N1CCN(Cc2cn(-c3cccc(S(N)(=O)=O)c3)nn2)CC1 | -2.75 | 1.36 | 5.73 | 0.95 | 0.97 | – | 2.3 |
| Cn1nncc1CC(=O)NC(c1ccccc1)c1nc2ccccc2n1C (stereo not given) | – | 54.1 | 0 | 1 | 1 | – | 0 |
| CC(=O)NCCc1c[nH]c2c(CN3CCN(C(=O)CCl)CC3)cccc12 | 62.8 | 85.7 | 100 | 0.95 | 0.95 | 11.5 | – |
| O=S(=O)(Cc1ccc(F)cc1)Nc1cccnc1 | 6.67 | -13.8 | -5.13 | 1 | 1 | – | – |
| Cc1ncc2c(n1)CCC(NC(=O)NCc1cccc(N3C(=O)NC4(CCCC4)C3=O)c1)C2 (stereo not given) | -7.81 | -6.65 | 0 | 0.99 | 0.97 | – | – |
| C=CC(=O)N(c1ccc(SC)cc1)C(C(=O)Nc1ccc(OC)cc1C)c1cccnc1 (stereo not given) | 8.27 | 22.2 | – | 0.95 | 0.84 | – | 0 |
| C=CC(=O)N(c1cc(C(C)(C)C)on1)C(C(=O)NCCc1cccc(F)c1)c1cncc(C)c1 (stereo not given) | 17.5 | 24.8 | 0 | 1 | 0.91 | – | – |
| NS(=O)(=O)c1ccc(N2CCC([C@@H]3CCCO3)CC2)cc1 (stereo in doubt) | – | -16 | 52.2 | 0.99 | 1 | – | 35 |
| Cc1[nH]ncc1NC(=O)Cc1cccc(Cl)c1 | 3.64 | 6.93 | 52.1 | 0.99 | 1 | – | – |
| C=CC(=O)N(c1ccc(N(C)C)c(C)c1)C(C(=O)NC(C)(C)C)c1cccnc1 (stereo not given) | 2.89 | 8.8 | 14.4 | 0.98 | 0.95 | – | 0 |
| CCSCC1CCN(c2ccc(S(N)(=O)=O)cc2)CC1 | – | -25.8 | 40.2 | 1 | 1.01 | – | 26 |
| CCOCC(=O)NCc1ccc(CNC(=O)Cn2nnc3ccccc32)cc1 | 1.82 | 1.31 | 0 | 0.99 | 1 | – | – |
| C=CC(=O)N(c1ccc(C(C)(C)C)cc1)C(C(=O)NC)c1cccnc1 (stereo not given) | 42.1 | 69.7 | 100 | 1.01 | 0.99 | 17 | 57.4 |
| O=C(Cn1nnc2ccccc21)NCc1ccc(Oc2cccnc2)c(F)c1 | -21.1 | -19.3 | – | 0.99 | 0.99 | – | 0 |
| O=C(c1cc(=O)[nH]c2ccccc12)N1CCN(Cc2ccccc2)CC1 | 74.5 | 87.8 | 82.4 | 0.99 | 1 | 18.8 | – |
| CNCc1c[nH]c2ccc(F)cc12 | – | 32.7 | 16.1 | 0.99 | 1 | – | 3.09 |
| COc1ccccc1OCCN(C)C(=O)c1cc(=O)[nH]c2cc(F)ccc12 | -3.47 | 7.57 | 0 | 1.01 | 1 | – | – |
| CNC(=O)OC1CCN(C(=O)c2ccccc2)CC1 | – | 19.2 | 0 | 1 | 1 | – | 0 |
| C=CC(=O)N(c1ccc(N(C)C)c(C)c1)C(C(=O)Nc1ccc(Cl)cc1)c1cccnc1 (stereo not given) | 4.26 | 12.1 | – | 0.88 | 0.78 | – | 0 |
| Cc1ccncc1NC(=O)CCc1ccn[nH]1 | 18.9 | -26.3 | -1.76 | 1 | 1 | – | – |
| O=C(CC(=O)N1CCOCC1)NCc1ccccc1 | -1.44 | 15.1 | 0 | 0.99 | 1 | – | 0 |
